According to patent publication US5049372A, “Anticancer activities in a host by increasing blood and plasma adenosine 5'-triphosphate (ATP) levels” (priority 1988, dated 1991):
Where two headings read alike, the source gives them in different places.

Columns and labels:
[1] = tested on: CT26 colon adenocarcinoma; test: Growth inhibition of footpad CT26 colon adenocarcinoma in CB6F1 mice, second series (FIGS. 2 and 3); assay type: in vivo, mouse; settings: for Anticancer activities against established footpad CT26 colon adenocarcinoma: CB6F1 mice, in words; for Inhibition of growth of palpable CT26 tumors (in words): daily i.p. in 2.2 ml saline, pH 6.2, 12 days, starting after tumors palpable, equimolar amounts
Description: A further series of tests are conducted whereby tumors are inoculated by injections of 2.5×10^5 CT26 cells (over 90% viability) in 50 μl of phosphate-buffered saline into the right hind footpad of CB6F1 mice. The treatments were initiated at a variety of times after inoculation of the tumors. The injection schedules started either 1 or 5 days after tumor inoculation when none of the tumors are palpable or when the tumors are clearly palpable (average calculated weight of 100 mg), which occur in 100% of the inoculated mice after 8-11 days. Mice are randomized, divided into groups, and injected daily with 2.2 ml of saline, adenosine, AMP, or ATP (compounds are in sterile saline solutions at concentrations of 25 mM with AMP and ATP solutions adjusted to pH 6.2). Injections are administered intraperitoneally with 30 gauge needles and the mice are lightly anesthetized with […]. The mice are weighed and tumor sizes measured before the start of the treatment schedule and every three days during and after the treatment schedule. These determinations are performed before injections during the treatment period.
In particular, see FIG. 2. FIG. 2 illustrates inhibition of tumor growth (---) and host weight loss (-) in tumor-bearing mice by treatment with adenine nucleotides. Mice (CB6F1, 8 week old males) bearing palpable CT26 footpad tumors (on day 9 after tumor inoculation) are treated with saline (.smallcircle.), adenosine (o), AMP (Δ), or ATP (.quadrature.) as described herein. An untreated group is also included (x). Arrows indicate days of injection.
The magnitude of the antitumor activities of AMP and ATP depends to a small extent on the pH of the solution administered intraperitoneally. This property is probably related to the number of negative charges on the phosphate groups (the pKa of the secondary phosphate is around 6.6). AMP and especially ATP have some buffering capacity, and at a pH below 6.6 they carry a smaller net charge than at a physiological pH. The lower charge of these molecules enhances the initial (first hour) transport of AMP and ATP across the peritoneal membrane and into the systemic circulation (see Torres, et al., 1978, Pharmacol., 17, 330-340). […] The treatment schedule of palpable CT26 tumors which is illustrated in FIG. 2 consistently yields 10-20% of "cures". These mice remain tumor-free for at least two months.
FIG. 3 further illustrates inhibition of host weight loss in tumor-bearing animals by treatment with adenine nucleotides. Mice (CB6F1, males, 7 weeks old, in A, 10 weeks old in B, […]) with saline (.smallcircle.), adenosine (o), AMP (Δ), or ATP (.quadrature.) are initiated 1 day (A), 5 days (B), or 9 days after tumor inoculation (when all the tumors were palpable) (C). Arrows indicate days of injection. Experimental procedures were outlined in the text.

CT26 tumors = test: Growth inhibition of s.c. footpad CT26 tumors in CB6F1 mice by daily i.p. adenine nucleotides (Table 1); assay type: in vivo, mouse; settings: for inhibition at 25000 µM: Mus musculus, CT26, 360 h, 1 ml of 25 mM, based on tumor weights
Description: The tumor cell lines employed were CT26, a mouse undifferentiated, aggressive colon carcinoma, and CAPAN-1, a well-differentiated human pancreatic adenocarcinoma. […] The cells are shown to be free of Mycoplasma contamination. Cells are cultured at 37° C. in a humidified atmosphere of 5% CO2 /95% air in MEM supplemented with antibiotics (100 units of penicillin per ml and 100 μg streptomycin per ml), L-glutamine (2 mM), non-essential amino acids (0.1 mM), sodium pyruvate (1 mM), and 10% fetal bovine serum.
In the tests, females and males CB6F1 mice (a standard F1 hybrid of BALB/C and C57BL/6) obtained from Jackson Laboratories, Bar Harbor, Maine and athymic outbred NCr nu/nu mice (males and females) from the Department of Radiation Medicine, Massachusetts General Hospital, Boston, Mass. 02114 are used. All the mice are kept for at least two weeks before inoculation of the tumors and the start of treatment and are 7-9 weeks old (CB6F1) or 6-7 weeks old (athymic nu/nu) at the start of the procedure. Animals weigh 20-25 g (females) or 23-28 g (males), are housed 5-12 per cage, and have ad libitum access to food and water.
Tumor cells are removed from subconfluent cultures by a mild trypsin-EDTA treatment, the cell pellet is washed once with MEM without serum and the cells are suspended at the desired cell numbers in PBS (phosphate-bufferedsaline, 8 g NaCl, 0.2 g KCl, 1.15 g Na2 HPO4.7H2 O, and 0.2 g KH2 PO4 per liter). Cell suspensions are shown to be at least 90% viable by trypan blue exclusion. Mice are injected subcutaneously in the right hind footpad with tumor cells suspended in 50 μl of PBS. The regular protocol (unless otherwise stated) consists of daily i.p. injections of 1 ml of 0.85% NaCl solution or 1 ml of 50 mM of AMP, ADP, or ATP in 0.85% NaCl (from stock solutions adjusted to pH 6.2) starting one day after tumor inoculation and given for ten consecutive days.
Injections are administered with 30 gauge needles and the mice are lightly anesthetized with ether. The mice are weighed before the start of treatment and once a week during and after treatment. After the tumors become palpable, tumor sizes are determined every three days. The animals are sacrificed, tumors are excised and weighed before they reach 10% of the animals' weight.
The growth inhibitory properties of adenine nucleotides against CT26 murine colon carcinoma, which are inoculated s.c. in the hind footpad of CB6F1 mice, are illustrated in Table 1 hereinbelow. […] No significant differences between males and females are observed either in the rate of tumor growth or in the tumor's response to adenine nucleotides treatment.

[2] = experiment 6, 10 F per group, 0.5 × 10^5 cells, day 18, 1 ml of 50 mM i.p. daily (Ap4A 10 mM)
[3] = experiment 1, 10 F per group, 0.5 × 10^6 cells, day 15, 1 ml of 25 mM i.p. daily
[4] = experiment 2, 10 M per group, 0.5 × 10^6 cells, day 15, 1 ml of 25 mM i.p. daily

O=P(O)(O)O [inorganic phosphate, reference compound]
Anticancer activities against established footpad CT26 colon adenocarcinoma [1]: without such effects
Inhibition of growth of palpable CT26 tumors (in words) [1]: without any effects on the growth of CT26 tumors

Nc1ncnc2c1ncn2[C@@H]1O[C@H](COP(=O)(O)OP(=O)(O)OP(=O)(O)OP(=O)(O)OC[C@H]2O[C@@H](n3cnc4c(N)ncnc43)[C@H](O)[C@@H]2O)[C@@H](O)[C@H]1O [AP4 A, reference compound]
Tumor diameter (CT26 tumors; [2]): 0.9 ± 0.3 cm
Tumor weight (CT26 tumors; [2]): 0.74 ± 0.21 g

O=P(O)(O)OP(=O)(O)O [inorganic pyrophosphate, reference compound]
Anticancer activities against established footpad CT26 colon adenocarcinoma [1]: without such effects
Inhibition of growth of palpable CT26 tumors (in words) [1]: without any effects on the growth of CT26 tumors

Nc1ncnc2c1ncn2[C@@H]1O[C@H](COP(=O)(O)OP(=O)(O)OP(=O)(O)O)[C@@H](O)[C@H]1O [ATP-MgCl2]
inhibition at 25000 µM (CT26 tumors; read-out: Inhibition of tumor growth (% of saline-treated), experiment 1, 10 F per group, 0.5 × 10^6 cells, day 15): 18%
inhibition at 25000 µM (CT26 tumors; read-out: Inhibition of tumor growth (% of saline-treated), experiment 2, 10 M per group, 0.5 × 10^6 cells, day 15): 26%
Tumor diameter (CT26 tumors; [3]): 1.4 ± 0.2 cm
Tumor weight (CT26 tumors; [3]): 1.59 ± 0.24 g
Tumor diameter (CT26 tumors; [4]): 1.4 ± 0.3 cm
Tumor weight (CT26 tumors; [4]): 1.38 ± 0.40 g
